From patent US11033556B2, “Bicyclic sulfonamides” (priority 2019, dated 2021) come the findings set out here.

For experiment [1], the system named is HBV. Nature of the experiment: HBV-DNA Antiviral Assay Using HepG2.2.15 Cells. The experiment is classed as cell-based. The note with it: Hepatitis B virus. As to the method: The following assay procedure describes the HBV antiviral assay. This assay uses HepG2.2.15 cells, which have been transfected with HBV genome, and extracellular HBV DNA quantification as endpoint. Cell viability is assessed in parallel by measuring the intracellular ATP content using the CellTiter-Glo® reagent from Promega.
On day 0, HepG2.2.15 cells were seeded in 96-well plates at a density of 6.0×10^4 cells/well(0.1 ml/well). The cells were incubated at 37° C. and 5% CO2.
On day 1, the test articles were diluted and added to cell culture wells (8 concentrations, 4-fold dilution, in duplicate). GLS4, Tenofovir and Sorafenib were used as reference compounds. 100 μl of culture medium containing the compounds was added to the plate, and the final total volume per well was 200 μl. The final concentration of DMSO in the culture medium was 0.5%. The plate map of compound treatment is shown below. The cells were cultured at 37° C. and 5% CO2 for 3 days.
On day 4, the plates were refreshed with culture media with compounds.
On day 7, cell viability was assessed using the CellTiter-Glo®, and the cell culture supernatants were collected for determination of HBV DNA by qPCR.
Extracellular DNA was isolated with QIAamp 96 DNA Blood Kit per the manufacturer's manual. HBV DNA was then quantified by qPCR with HBV specific primers and probes as specified in Table 2 using the FastStart Universal MasterMix from Roche on an ABI-7900HT. The PCR cycle program consisted of 95° C. for 10 min, followed by 40 cycles at 95° C. for 15 sec and 60° C. for 1 min.
A DNA standard was prepared by dilution of the pAAV2 HBV1.3 plasmid with concentrations ranging from 10 to 1×10^7 […] and used to generate a standard curve by plotting Ct value vs. the concentration of the HBV plasmid DNA standard. The quantity of HBV DNA in each sample was determined by interpolating from the standard curve.
Cell viability was calculated as follows: % Cell viability=(luminescence value of test sample−average luminescence value of blank)/(average luminescence value of 0.5% DMSO control−average luminescence of blank)×100%. HBV DNA inhibition was calculated as follows: 100−(HBV DNA copy number of test sample−HBV DNA copy number of ETV)/HBV DNA copy number of 0.5% DMSO control−HBV DNA copy number of ETV)×100%. The CC50, EC50 and EC90 values were determined by dose-response curves fitted by GraphPad Prism using “log (agonist) vs. response—Variable slope”.

Experiment [2] deals with genotype D HBV. Nature of the experiment: HBV-DNA Antiviral Assay Using HepG2.117 Cells. The class given is cell-based. The note with it: Hepatitis B virus, HepG2.117, 96 h, intracellular HBV DNA by qPCR, day 4. On the procedure:
The following assay procedure describes the HBV antiviral assay, using HepG2.117 cells, which carry a stably integrated genotype D HBV genome under the control of a Tet-off promoter, and intracellular HBV DNA quantification as endpoint. Cell viability is assessed in parallel by measuring the intracellular ATP content using ATPlite (Perkin Elmer).
On day 0, HepG2.117 cells (which are maintained in routine cell culture with doxycycline present in the medium at a final concentration of 1 μg/mL) were seeded in 96-well plates (white with clear bottom) at a density of 2.0×10^4 cells/well (0.1 mL/well) in medium without doxycycline to induce pgRNA transcription and subsequent formation of HBV particles. The cells were incubated at 37° C. and 5% CO2.
On day 1, medium was removed from each well, the test articles were diluted in culture medium without doxcycyline and 100 μL was added to cell culture wells (9 concentrations, 4-fold dilution). For each plate, 6 untreated (merely DMSO) wells were included. The final concentration of DMSO in the culture medium was 2%. Each plate was prepared in duplicate (one for HBV DNA extraction, one for ATPlite measurement). The cells were incubated at 37° C. and 5% CO2 for 3 days.
On day 4, cell viability was assessed using ATPlite and cell lysates were prepared for HBV DNA extraction and subsequent quantification by qPCR.
Medium was removed from each well and 100 μL of 0.33% NP-40 in H2O was added to each well. Plates were sealed, incubated at 4° C. for 5 mins, vortexed extensively and centrifuged briefly. Next, 35 μL of lysate was added to 65 μL QuickExtract DNA Extraction Solution (Epicentre) in a PCR plate for each well. PCR plate was incubated at 65° C. for 6 mins, 98° C. for 2 mins and finally cooled to 4° C. HBV DNA was then quantified by qPCR with HBV-specific primers and probes as specified in Table 4 using the Bio-Rad SSOAdvanced Universal Probes Supermix on a CFX96 machine (Bio-Rad). The PCR cycle program consisted of 95° C. for 3 mins, followed by 40 cycles at 95° C. for 10 sec and 60° C. for 30 sec.
A DNA standard was prepared by dilution of an IDT gBlock corresponding to the amplicon with concentrations ranging from 10^2 to 10^8 copies/input (i.e. per 4 μL) and used to generate a standard curve by plotting Cq values vs. HBV DNA standard concentration. The quantity of HBV DNA in each sample was determined by interpolating from the standard curve.
Cell viability was calculated as follows: % Cell viability=(luminescence value of test sample)/(average luminescence value of 2% DMSO control)×100%. HBV DNA inhibition was calculated as follows: 100−(HBV DNA copy number of test sample)/(average HBV DNA copy number of 2% DMSO control)×100%. No normalization to entecavir was required due to the excellent dynamic window of this assay. The CC50, EC50 and EC90 values were determined by dose-response curves fitted by GraphPad Prism using “log (agonist) vs. response—Variable slope”.
On the technique in general: In qPCR the cycle at which signal appears reflects the starting amount.

[3] abbreviates: HepG2.2.15 cells, extracellular HBV DNA by qPCR, one class for the group of four: *at least 2 of the diastereomers have the indicated activity, read-out: EC50.

Structures are written as SMILES. Like-named read-outs stand apart in the source and are kept apart here. Where only a bound is given, the exact number is not on record here.

Consider `C#C[C@@H](O)[C@H]1CCc2c(cn(C)c2C(=O)Nc2ccc(F)c(C#N)c2)S(=O)(=O)N1` [Compound 2A, (3R)—N-(3-cyano-4-fluorophenyl)-3-[(1R)-1-hydroxyprop-2-yn-1-yl]-7-methyl-1,1-dioxo-2H,3H,4H,5H-1λ6-pyrrolo[3,4-f][1,2]thiazepine-6-carboxamide], for which the EC50 (commonly the midpoint of the concentration-response curve) in experiment [1] (setting [3]) is under 1000 nM.

Regarding `C#C[C@H](O)[C@H]1CCc2c(cn(C)c2C(=O)Nc2ccc(F)c(C#N)c2)S(=O)(=O)N1` [Compound 2B, (3R)—N-(3-cyano-4-fluorophenyl)-3-[(1S)-1-hydroxyprop-2-yn-1-yl]-7-methyl-1,1-dioxo-2H,3H,4H,5H-1λ6-pyrrolo[3,4-f][1,2]thiazepine-6-carboxamide], in experiment [1] (setting [3]), the EC50 was under 1000 nM.

On to `C#C[C@H](O)[C@@H]1CCc2c(cn(C)c2C(=O)Nc2ccc(F)c(C#N)c2)S(=O)(=O)N1` [Compound 2C, (3S)—N-(3-cyano-4-fluorophenyl)-3-[(1S)-1-hydroxyprop-2-yn-1-yl]-7-methyl-1,1-dioxo-2H,3H,4H,5H-1λ6-pyrrolo[3,4-f][1,2]thiazepine-6-carboxamide], for which the half-maximal effective concentration (EC50) in experiment [1] (setting [3]) is under 1000 nM.

Take `C#C[C@@H](O)[C@@H]1CCc2c(cn(C)c2C(=O)Nc2ccc(F)c(C#N)c2)S(=O)(=O)N1` [Compound 2D, (3S)—N-(3-cyano-4-fluorophenyl)-3-[(1R)-1-hydroxyprop-2-yn-1-yl]-7-methyl-1,1-dioxo-2H,3H,4H,5H-1λ6-pyrrolo[3,4-f][1,2]thiazepine-6-carboxamide]: in experiment [1] (setting [3]), the EC50 was under 1000 nM.

In the case of `CC#C[C@@H](O)[C@H]1CCc2c(cn(C)c2C(=O)Nc2ccc(F)c(C#N)c2)S(=O)(=O)N1` [Compound 3A, (3R)—N-(3-cyano-4-fluorophenyl)-3-[(1R)-1-hydroxybut-2-yn-1-yl]-7-methyl-1,1-dioxo-2H,3H,4H,5H-1λ6-pyrrolo[3,4-f][1,2]thiazepine-6-carboxamide], the EC50 in experiment [1] (HepG2.2.15) was under 1000 nM.

On to `CC#C[C@H](O)[C@@H]1CCc2c(cn(C)c2C(=O)Nc2ccc(F)c(C#N)c2)S(=O)(=O)N1` [Compound 3C, (3S)—N-(3-cyano-4-fluorophenyl)-3-[(1S)-1-hydroxybut-2-yn-1-yl]-7-methyl-1,1-dioxo-2H,3H,4H,5H-1λ6-pyrrolo[3,4-f][1,2]thiazepine-6-carboxamide], for which the EC50 in experiment [1] (HepG2.2.15) is under 1000 nM.

`CC#C[C@@H](O)[C@@H]1CCc2c(cn(C)c2C(=O)Nc2ccc(F)c(C#N)c2)S(=O)(=O)N1` [Compound 3D, (3S)—N-(3-cyano-4-fluorophenyl)-3-[(1R)-1-hydroxybut-2-yn-1-yl]-7-methyl-1,1-dioxo-2H,3H,4H,5H-1λ6-pyrrolo[3,4-f][1,2]thiazepine-6-carboxamide] came in with an EC50 in experiment [1] (HepG2.2.15) of under 1000 nM.

In experiment [2], `C=C[C@]1([C@@H](C)O)COc2c(cn(C)c2C(=O)Nc2ccc(F)c(C#N)c2)S(=O)(=O)N1` [Compound 38B] showed an EC50 of 10 to 100 nM.

On to `C=C[C@]1([C@H](C)O)COc2c(cn(C)c2C(=O)Nc2ccc(F)c(C#N)c2)S(=O)(=O)N1` [Compound 38C], for which the 50% effective concentration (EC50) in experiment [2] was 1 to 10 nM.

Regarding `C=C[C@@]1([C@@H](C)O)COc2c(cn(C)c2C(=O)Nc2ccc(F)c(C#N)c2)S(=O)(=O)N1` [Compound 38D], the concentration for a half-maximal effect (EC50) in experiment [2] is 100 to 1000 nM.

As for `C=CC1([C@H]2COc3c(cn(C)c3C(=O)Nc3ccc(F)c(C#N)c3)S(=O)(=O)N2)CCOCC1` [Compound 39A], in experiment [2], the EC50 was 10 to 100 nM.

In turn, `C=CC1([C@@H]2COc3c(cn(C)c3C(=O)Nc3ccc(F)c(C#N)c3)S(=O)(=O)N2)CCOCC1` [Compound 39B] had a 50% effective concentration (EC50) in experiment [2] of 10 to 100 nM.

Take `C=CC[C@](C)(O)[C@H]1COc2c(cn(C)c2C(=O)Nc2ccc(F)c(C#N)c2)S(=O)(=O)N1` [Compound 40A]: the EC50 in experiment [2] fell in the range of 1 to 10 nM.

In turn, `C=CC[C@@](C)(O)[C@H]1COc2c(cn(C)c2C(=O)Nc2ccc(F)c(C#N)c2)S(=O)(=O)N1` [Compound 40B] registered a concentration for a half-maximal effect (EC50) in experiment [2] of 1 to 10 nM.

`C=C[C@H](O)[C@]1(C)COc2c(cn(C)c2C(=O)Nc2ccc(F)c(C#N)c2)S(=O)(=O)N1` [Compound 41A] returned a concentration for a half-maximal effect (EC50) in experiment [2] of 1 to 10 nM.

Compound `C=C[C@@H](O)[C@@]1(C)COc2c(cn(C)c2C(=O)Nc2ccc(F)c(C#N)c2)S(=O)(=O)N1` [Compound 41B] yielded an EC50 in experiment [2] of 1 to 10 nM.

For the compound `C=C[C@H](O)[C@@]1(C)COc2c(cn(C)c2C(=O)Nc2ccc(F)c(C#N)c2)S(=O)(=O)N1` [Compound 41C], the concentration giving a half-maximal response (EC50) in experiment [2] was 10 to 100 nM.

`C=C[C@@H](O)[C@]1(C)COc2c(cn(C)c2C(=O)Nc2ccc(F)c(C#N)c2)S(=O)(=O)N1` [Compound 41D] came in with a concentration for a half-maximal effect (EC50) in experiment [2] of 10 to 100 nM.

For `C#C[C@H](O)[C@]1(C)COc2c(cn(C)c2C(=O)Nc2ccc(F)c(C#N)c2)S(=O)(=O)N1` [Compound 42A], the concentration giving a half-maximal response (EC50) in experiment [2] is 1 to 10 nM.

With `C#C[C@@H](O)[C@@]1(C)COc2c(cn(C)c2C(=O)Nc2ccc(F)c(C#N)c2)S(=O)(=O)N1` [Compound 42B], the EC50 in experiment [2] was 1 to 10 nM.

Regarding `C#C[C@H](O)[C@@]1(C)COc2c(cn(C)c2C(=O)Nc2ccc(F)c(C#N)c2)S(=O)(=O)N1` [Compound 42C], the concentration giving a half-maximal response (EC50) in experiment [2] was 1 to 10 nM.

`C#C[C@@H](O)[C@]1(C)COc2c(cn(C)c2C(=O)Nc2ccc(F)c(C#N)c2)S(=O)(=O)N1` [Compound 42D]: the concentration giving a half-maximal response (EC50) in experiment [2] lay within 10 to 100 nM.

For the compound `C=CC1([C@H]2COc3c(cn(C)c3C(=O)Nc3ccc(F)c(C#N)c3)S(=O)(=O)N2)CCS(=O)(=O)CC1` [Compound 43A], the EC50 in experiment [2] was 10 to 100 nM.

For the compound `C=CC1([C@@H]2COc3c(cn(C)c3C(=O)Nc3ccc(F)c(C#N)c3)S(=O)(=O)N2)CCS(=O)(=O)CC1` [Compound 43B], the EC50 in experiment [2] is 10 to 100 nM.

In experiment [2], `C=CC[C@H](O)[C@]1(C)COc2c(cn(C)c2C(=O)Nc2ccc(F)c(C#N)c2)S(=O)(=O)N1` [Compound 44A] gave an EC50 of 10 to 100 nM.

Take `C=CC[C@@H](O)[C@@]1(C)COc2c(cn(C)c2C(=O)Nc2ccc(F)c(C#N)c2)S(=O)(=O)N1` [Compound 44B]: the half-maximal effective concentration (EC50) in experiment [2] fell in the range of 1 to 10 nM.

For `C=CC(C)(C)[C@H]1COc2c(cn(C)c2C(=O)Nc2ccc(F)c(C#N)c2)S(=O)(=O)N1` [Compound 45A], the half-maximal effective concentration (EC50) in experiment [2] was in the range of 1 to 10 nM.

In the case of `C=CC(C)(C)[C@@H]1COc2c(cn(C)c2C(=O)Nc2ccc(F)c(C#N)c2)S(=O)(=O)N1` [Compound 45B], the concentration giving a half-maximal response (EC50) in experiment [2] is 1 to 10 nM.

Turning to `CC#CC[C@H]1COc2c(cn(C)c2C(=O)Nc2ccc(F)c(C#N)c2)S(=O)(=O)N1` [Compound 46], the EC50 in experiment [2] was 1 to 10 nM.

`C=CC[C@H]1COc2c(cn(C)c2C(=O)Nc2ccc(F)c(C#N)c2)S(=O)(=O)N1` [Compound 47]: the half-maximal effective concentration (EC50) in experiment [2] lay in the range of 1 to 10 nM.
